Experimental data taken from US7166622B2, “Substituted phenylsulfonamide inhibitors of beta amyloid production” (Wyeth, priority 2002, dated 2007).

Key:
[1] = test system: beta amyloid production; test: Repressor Release Assay (RRA); assay type: cell-based; settings: Conc 10 μg/ml; for fold induction at 10 µg/mL / APPI Fold Increase: luciferase activity over diluent control; for fold induction at 10 µg/mL: read-out: APPI Fold Increase; for APPI % of Example #98: relative to Example 98
Procedure, shortened: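 CHO-K1 cells transiently co-transfected with pRSVO-luc and an APP-lacI construct, replated, then treated in duplicate for 36-48 h at 37 °C, 5% CO2. Compounds diluted in 25 mM Hepes, with Hepes/1% DMSO as diluent control. Luciferase read-out in relative light units; toxicity scored 1 non-toxic, 0 toxic.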

[2] = test system: CHO-K1 cells; test: Toxicity in RRA (loss of luciferase signal); settings: Conc 10 μg/ml; toxicity = loss of signal (<0.75 fold increase)
Description: The beta amyloid inhibitory activity of the compounds of the present invention was determined using the Repressor Release Assay (RRA).
“Fold Increase” refers to the amount of luciferase activity (measured in relative light units) over diluent control. “SEM” refers to the standard error of the mean for fold increase.

Compound	fold induction at 10 µg/mL [1]	(%)APPI Toxicity [2]	APPI Fold Increase [1] [fold]	APPI % of Example #98 [1] [%]
CCCCC(O)[C@@H](NS(=O)(=O)c1ccc(Cl)cc1)[C@@H](C)CC (stereo partly drawn) [Example 169, 4-chloro-N-{(1S)-2-hydroxy-1-[(1S)-1-methylpropyl]hexyl}benzenesulfonamide]	2.85	1 (1=non-toxic)		
CC[C@H](C)[C@H](NS(=O)(=O)c1ccc(Cl)cc1)C(O)C(C)C (stereo partly drawn) [Example 170, 4-chloro-N-{(1S)-2-hydroxy-3-methyl-1-[(1S)-1-methylpropyl]butyl}benzenesulfonamide]	1.92	1 (1=non-toxic)		
CC[C@H](C)[C@H](NS(=O)(=O)c1ccc(Cl)cc1)C(O)c1ccccc1C (stereo partly drawn) [Example 171, 4-chloro-N-{(1S,2S)-1-[hydroxy(2-methylphenyl)methyl]-2-methylbutyl}benzenesulfonamide]	1.54	1 (1=non-toxic)		
CC[C@H](C)[C@H](NS(=O)(=O)c1ccc(Cl)cc1)C(O)C(C)(C)C (stereo partly drawn) [Example 172, 4-chloro-N-{(1S)-2-hydroxy-3,3-dimethyl-1-[(1S)-1-methylpropyl]butyl}benzenesulfonamide]	2.51	1 (1=non-toxic)		
CC[C@H](C)[C@H](NS(=O)(=O)c1ccc(Cl)cc1)C(O)CC(C)C (stereo partly drawn) [Example 173, 4-chloro-N-{(1S)-2-hydroxy-4-methyl-1-[(1S)-1-methylpropyl]pentyl}benzenesulfonamide]	2.56	1 (1=non-toxic)		
C=CC(O)[C@@H](NS(=O)(=O)c1ccc(Cl)cc1)[C@@H](C)CC (stereo partly drawn) [Example 174, 4-chloro-N-{(1S)-2-hydroxy-1-[(1S)-1-methylpropyl]-3-butenyl}benzenesulfonamide]	2.1	1 (1=non-toxic)		
CCC(O)[C@@H](NS(=O)(=O)c1ccc(Cl)cc1)[C@@H](C)CC (stereo partly drawn) [Example 176, 4-chloro-N-{(1S)-2-hydroxy-1-[(1S)-1-methylpropyl]butyl}benzenesulfonamide]	2.63	1 (1=non-toxic)		
CC[C@H](C)[C@H](NS(=O)(=O)c1ccc(Cl)cc1)C(O)c1ccc(Cl)cc1 (stereo partly drawn) [Example 177, 4-chloro-N-{(1S,2S)-1-[(4-chlorophenyl) (hydroxy)methyl]-2-methylbutyl}benzenesulfonamide]	1.95	1 (1=non-toxic)		
CC[C@H](C)[C@H](NS(=O)(=O)c1ccc(Cl)cc1)C(O)c1ccc(OC)cc1 (stereo partly drawn) [Example 178, 4-chloro-N-{(1S,2S)-1-[hydroxy(4-methoxyphenyl)methyl]-2-methylbutyl}benzenesulfonamide]	1.68	1 (1=non-toxic)		
CC[C@H](C)[C@H](NS(=O)(=O)c1ccc(Cl)cc1)C(O)CCC1OCCCO1 (stereo partly drawn) [Example 179, 4-chloro-N-{(1S)-4-(1,3-dioxan-2-yl)-2-hydroxy-1-[(1S)-1-methylpropyl]butyl} benzenesulfonamide]		1 (1=non-toxic)	1.63	79.4
C=CCCC(O)[C@@H](NS(=O)(=O)c1ccc(Cl)cc1)[C@@H](C)CC (stereo partly drawn) [Example 180, 4-chloro-N-{(1S)-2-hydroxy-1-[(1S)-1-methylpropyl]-5-hexenyl}benzenesulfonamide]	1.69	1 (1=non-toxic)		
CC#CC(O)[C@@H](NS(=O)(=O)c1ccc(Cl)cc1)[C@@H](C)CC (stereo partly drawn) [Example 181, 4-chloro-N-{(1S)-2-hydroxy-1-[(1S)-1-methylpropyl]-3-pentynyl}benzenesulfonamide]	1.76	1 (1=non-toxic)		
CC[C@H](C)[C@H](NS(=O)(=O)c1ccc(Cl)cc1)C(O)c1ccc(SC)cc1 (stereo partly drawn) [Example 182, 4-chloro-N-((1S,2S)-1-{hydroxy[4-(methylsulfanyl)phenyl]methyl}-2-methylbutyl) benzenesulfonamide]		1 (1=non-toxic)	2.58	122.24
